{"source": "patent US4898975A", "about": "“Water soluble organic ammonium per halides” (Great Lakes Chemical Corporation, priority 1989, dated 1990)", "key": {"[1]": {"test": "Titration of oxidizable bromine (Standard Methods, Method 408A)", "type": "physicochemical", "conditions": "for Ox. Br2: of the sample used for vapor pressure (Table 9)"}, "[2]": {"test": "Vapor pressure of aqueous organic ammonium perbromides (isoteniscope)", "type": "physicochemical", "conditions": "for Vp: 26° C. (Table 9)", "experimental": "The vapor pressures of the aqueous organic ammonium perbromides were measured using an isoteniscope as described by Farrington, et al. [Farrington, D.; Alberti, R.; William, S.; Corwell, C.; Bender, P; and Harriman, S. Experimental Physical Chemistry, Experiment 17, pp. 164-165, 7th Edition, McGraw Hill Publishing Co., New York, 1976]."}, "[3]": {"type": "physicochemical", "conditions": "closed bottle", "experimental": "In order to determine the shelf life stability of the perbromide solutions, a series of studies were conducted to determine the percent bromine lost over time. The following tables shown below list the perbromides studied and the percent oxidizable bromine lost over time. The perbromides studied were kept in closed bottles in ambient conditions (Table 7) and at 50° C."}, "physchem": {"test": "physchem", "conditions": "water"}, "[4]": {"test": "Water solubility of perbromides"}, "[5]": {"conditions": "higher aqueous ethanolammonium perbromides (Table 6)"}, "[6]": {"conditions": "partially soluble perbromides, separated liquid phase (Table 2)"}, "[7]": {"conditions": "completely soluble perbromides, aqueous solution (Table 1)"}, "[8]": {"conditions": "concentrated and anhydrous perbromides (Table 4)"}, "[9]": {"conditions": "50° C., time elapsed 40 (months)"}, "[10]": {"conditions": "50° C., time elapsed 40 (months), 1.752e+06 min"}}, "note": "Where two headings read alike, the source gives them in different places.", "data": [{"compound": "NCCO", "note": "[Compound 28]", "values": [{"measurement": "Tit. Ox. Br2", "setting": "[1]; [5]", "result": 63.9, "unit": "% by Weight"}]}, {"compound": "CN(C)CCO", "note": "[Compound 7, Dimethylethanolammonium Perbromide, reference compound]", "values": [{"measurement": "Vp", "setting": "[2]", "result": 30, "unit": "mmHg"}]}, {"compound": "Ethanolammonium Perbromide [Compound 21]", "values": [{"measurement": "Relative Change in % Br2", "setting": "[3]; 29200 h", "result": 3.1, "unit": "%"}, {"measurement": "Relative Change in % Br2", "setting": "[3]; ambient, 17520 h", "result": 2.0, "unit": "%"}]}, {"compound": "CCCNCCC", "note": "[Compound 10, Dipropylammonium Perbromide]", "values": [{"measurement": "Tit. Ox. Br2", "setting": "[1]; [6]", "result": 45.1, "unit": "% by Weight"}, {"measurement": "solubility", "setting": "physchem", "result": 100, "unit": "mg/mL"}]}, {"compound": "NCCCCCCN", "note": "[Compound 16, 1,6-Hexanediammonium]", "values": [{"measurement": "Tit. Ox. Br2", "setting": "[1]; perbromides precipitated out of aqueous solution (Table 3)", "result": 51.8, "unit": "% by Weight"}, {"measurement": "solubility", "setting": "physchem", "result": 500, "unit": "mg/mL"}]}, {"compound": "CCCN", "note": "[Compound 3, Propylammonium Perbromide]", "values": [{"measurement": "Tit. Ox. Br2", "setting": "[1]; [7]", "result": 39.3, "unit": "% by Weight"}, {"measurement": "Vp", "setting": "[2]", "result": 36, "unit": "mmHg"}]}, {"compound": "CCCN", "note": "[Compound 19, Propylammonium Perbromide]", "values": [{"measurement": "Tit. Ox. Br2", "setting": "[1]; [8]", "result": 53.2, "unit": "% by Weight"}]}, {"compound": "CNCCO", "note": "[Compound 5, Methylethanolammonium Perbromide]", "values": [{"measurement": "Tit. Ox. Br2", "setting": "[1]; [7]", "result": 39.3, "unit": "% by Weight"}, {"measurement": "Ox. Br2", "setting": "[1]", "result": 39.3, "unit": "% by Weight"}, {"measurement": "Vp", "setting": "[2]", "result": 28, "unit": "mmHg"}]}, {"compound": "NCCO", "note": "[Compound 18, Ethanolammonium Perbromide]", "values": [{"measurement": "Tit. Ox. Br2", "setting": "[1]; [8]", "result": 51.8, "unit": "% by Weight"}]}, {"compound": "OCCNCCO", "note": "[Compound 4, Diethanolammonium Perbromide]", "values": [{"measurement": "Initial Ox. Br2", "setting": "[3]; 50° C.", "result": 37.0, "unit": "% by Weight"}, {"measurement": "Change in % Br2", "setting": "[3]; [9]", "result": 7.0, "unit": "%"}, {"measurement": "Final Ox. Br2", "setting": "[3]; [9]", "result": 30.0, "unit": "% by Weight"}, {"measurement": "Relative Change in % Br2", "setting": "[3]; [10]", "result": 18.9, "unit": "%"}, {"measurement": "Vp", "setting": "[2]", "result": 49, "unit": "mmHg"}]}, {"compound": "Propylammonium Perbromide [Compound 22]", "values": [{"measurement": "Relative Change in % Br2", "setting": "[3]; 29200 h", "result": 2.7, "unit": "%"}, {"measurement": "Relative Change in % Br2", "setting": "[3]; ambient, 17520 h", "result": 2.3, "unit": "%"}]}, {"compound": "CCCCCCN", "note": "[Compound 8, Hexylammonium Perbromide]", "values": [{"measurement": "Tit. Ox. Br2", "setting": "[1]; [7]", "result": 36.1, "unit": "% by Weight"}]}, {"compound": "NCCO", "note": "[Compound 27]", "values": [{"measurement": "Tit. Ox. Br2", "setting": "[1]; [5]", "result": 57.7, "unit": "% by Weight"}, {"measurement": "Ox. Br2", "setting": "[1]", "result": 57.7, "unit": "% by Weight"}, {"measurement": "Vp", "setting": "[2]", "result": 116, "unit": "mmHg"}]}, {"compound": "CCCCCCCCN", "note": "[Compound 9, Octylammonium Perbromide]", "values": [{"measurement": "Tit. Ox. Br2", "setting": "[1]; [7]", "result": 34.7, "unit": "% by Weight"}]}, {"compound": "BrBr", "note": "[Compound 35, Bromine, reference compound]", "values": [{"measurement": "Ox. Br2", "setting": "[1]", "result": 100, "unit": "% by Weight"}, {"measurement": "vapor pressure", "setting": "[2]; 26° C.", "result": "approximately 220 mm Hg"}, {"measurement": "Vp", "setting": "[2]", "result": 223, "unit": "mmHg"}]}, {"compound": "NCCO", "note": "[Compound 1, Ethanolammonium Perbromide]", "values": [{"measurement": "Initial Ox. Br2", "setting": "[3]; 50° C.", "result": 40.8, "unit": "% by Weight"}, {"measurement": "Change in % Br2", "setting": "[3]; [9]", "result": 1.8, "unit": "%"}, {"measurement": "Final Ox. Br2", "setting": "[3]; [9]", "result": 39.0, "unit": "% by Weight"}, {"measurement": "Relative Change in % Br2", "setting": "[3]; [10]", "result": 4.4, "unit": "%"}, {"measurement": "Change in % Br2", "setting": "[3]; ambient temperature, 24 months", "result": 1.6, "unit": "%"}, {"measurement": "Final Ox. Br2", "setting": "[3]; ambient temperature, 24 months", "result": 38.5, "unit": "% by Weight"}, {"measurement": "Relative Change in % Br2", "setting": "[3]; ambient temperature, 24 months, 1.0512e+06 min", "result": 4.0, "unit": "%"}, {"measurement": "Initial Ox. Br2", "setting": "[3]; ambient temperature", "result": 40.1, "unit": "% by Weight"}]}, {"compound": "NaBr3 [Compound 33, reference compound]", "values": [{"measurement": "Ox. Br2", "setting": "[1]", "result": 37.9, "unit": "% by Weight"}, {"measurement": "vapor pressure", "setting": "[2]", "result": 140, "unit": "mm Hg"}, {"measurement": "Vp", "setting": "[2]", "result": 145, "unit": "mmHg"}]}, {"compound": "CCN(CC)CCO", "note": "[Compound 14, Diethylethanolammonium]", "values": [{"measurement": "Tit. Ox. Br2", "setting": "[1]; [6]", "result": 42.3, "unit": "% by Weight"}, {"measurement": "Solubility in water (in words)", "setting": "[4]", "result": "only sparingly soluble in water"}, {"measurement": "solubility", "setting": "[4]", "result": 1, "unit": "mg/mL"}]}, {"compound": "CCCCN(CCCC)CCCC", "note": "[Compound 12, Tributylammonium Perbromide, reference compound]", "values": [{"measurement": "Ox. Br2", "setting": "[1]", "result": 37.5, "unit": "% by Weight"}, {"measurement": "Tit. Ox. Br2", "setting": "[1]; [6]", "result": 36.0, "unit": "% by Weight"}, {"measurement": "Vp", "setting": "[2]", "result": 28, "unit": "mmHg"}]}, {"compound": "CCCCNCCCC", "note": "[Compound 11, Dibutylammonium Perbromide]", "values": [{"measurement": "Ox. Br2", "setting": "[1]", "result": 43.3, "unit": "% by Weight"}, {"measurement": "Tit. Ox. Br2", "setting": "[1]; [6]", "result": 40.9, "unit": "% by Weight"}, {"measurement": "Change in % Br2", "setting": "[3]; ambient temperature, 16 months", "result": 2.1, "unit": "%"}, {"measurement": "Final Ox. Br2", "setting": "[3]; ambient temperature, 16 months", "result": 41.1, "unit": "% by Weight"}, {"measurement": "Relative Change in % Br2", "setting": "[3]; ambient temperature, 16 months, 700800 min", "result": 4.9, "unit": "%"}, {"measurement": "Initial Ox. Br2", "setting": "[3]; ambient temperature", "result": 43.2, "unit": "% by Weight"}, {"measurement": "Vp", "setting": "[2]", "result": 38, "unit": "mmHg"}, {"measurement": "solubility", "setting": "[4]", "result": 10, "unit": "mg/mL"}]}, {"compound": "NCCO", "note": "[Compound 26]", "values": [{"measurement": "Tit. Ox. Br2", "setting": "[1]; [5]", "result": 52.6, "unit": "% by Weight"}]}, {"compound": "OCCNCCO", "note": "[Compound 20, Diethanolammonium Perbromide]", "values": [{"measurement": "Tit. Ox. Br2", "setting": "[1]; [8]", "result": 45.3, "unit": "% by Weight"}]}, {"compound": "CCNCCO", "note": "[Compound 6, Ethylethanolammonium Perbromide]", "values": [{"measurement": "Tit. Ox. Br2", "setting": "[1]; [7]", "result": 37.7, "unit": "% by Weight"}]}, {"compound": "NCCO", "note": "[Compound 29]", "values": [{"measurement": "Tit. Ox. Br2", "setting": "[1]; [5]", "result": 72.6, "unit": "% by Weight"}]}]}
